Legend:
A375 cells = test: Assay 1: A375 cells treated with S1152, S1008 and compound, immunofluorescence (sc-365823) signal; format: cell-based; settings: 1 μM S1152 + 0.5 μM S1008, one day
Method: One thousand four hundred A375 cells were seeded in each well of a 384 well microplate. One day later they were treated with 1 μM S1152 (Selleckchem) in dimethyl sulfoxide, 0.5 μM S1008 (Selleckchem) and dose ranges of invention compounds for one day in Dulbecco's Modified Eagle's Medium supplemented with 10% fetal calf serum and 2 mM (2S)-2-amino-4-carbamoylbutanoic acid. Wells were incubated with 4% polyoxymethylene (Sigma Aldrich 158127) at ambient temperature. […] After one minute phosphate-buffered saline was replaced with 0.2% polyethylene glycol octylphenyl ether in phosphate-buffered saline. […] 1% aminoethanoic acid in phosphate-buffered saline was added for ten minutes at ambient temperature. […] After one hour at ambient temperature in the dark, signal in wells was measured with a Acumen Cellista. 3,8-Diamino-5-[3-(diethylmethylammonio)propyl]-6-phenylphenanthridinium diiodide-positive objects were defined in FL3 (565-600 nm) with a perimeter between 50-800 μm and a total intensity of 10000-1000000 FLU. Signal in FL2 (500-530 nm) was measured in defined objects. A normalized ratio of total In FL2 over total In FL3 staining was log transformed. A non-linear regression (variable slope, 4 parameters) was used to calculate EC50 values using GraphPad Prism (Version 7.0d).
In an alternative procedure, assay 1 has been affected by changing the counteratain. […] Cells were incubated with 0.5 μg/ml 2-(4-Amidinophenyl)-6-indolecarbamidine dihydrochloride, 4′,6-Diamidino-2-phenylindole dihydrochloride (Sigma D9542) in phosphate-buffered saline for at least 30 minutes at ambient temperature in the dark. A Celigo Imager (Nexcelom) was used to acquire images in the blue and green channel. The blue channel was used as a mask to define the area for the green signal. The average integrated intensity of the green signal was normalized and a non-linear regression (variable slope, 4 parameter) was used to calculate the EC50 values using GraphPad Prism (Version 8.4)

OPM-2 = test: Assay 2: multiple myeloma cellular efficacy, PrestoBlue cell proliferation/survival; format: cell-based; settings: Homo sapiens, 96 h, OPM-2 cells, 4 days
Method: Multiple Myeloma Cellular Efficacy:
10000 OPM-2 (ACC50; DSMZ) were plated into wells of a 384 well plate (Greiner 781090). Cells were treated for 4 days with a dose range of compound or vehicle. At the end of the experiment cells were stained directly with PrestoBlue (ThermoFisher Scietific; A13262) for 2 hours at 37° C. in a humidified incubator according to manufactor's instruction. To assess the relative cell number the PrestoBlue signal was measured using either a TecanM1000Pro reader or a Tecan Sparks reader following the manufactor's instructions. Background (no cells) values were subtracted and set in relation to the vehicle control. To assess the EC50 of each compound the relative fluorescence value was plotted against the compound concentration after log transformation. Data were fitted in a nonlinear manner with a variable slope (four parameters) using graphpad prism software. Cellular efficacy of compounds was evaluated in the multiple myeloma cell line OPM-2 using the cell proliferation/survival assay PrestoBlue. EC50 values are classified as indicated below.

| Structure (SMILES) | EC50 (A375 cells) [nM] | further results |
| --- | --- | --- |
| CC(=O)N1C[C@H](c2nc(Nc3cncc(C)c3)cc(-c3cccnc3)n2)CC[C@@H]1C (racemic) [Compound 00096, (+/−)-cis-1-(2-methyl-5-(4-((5-methylpyridin-3-yl)amino)-6-(pyridin-3-yl)pyrimidin-2-yl)piperidin-1-yl)ethan-1-one] | < 200 | EC50 (OPM-2): 200 to 1000 nM |
| COc1cncc(-c2cc(Nc3cccc(F)c3)nc([C@H]3CC[C@@H](C)N(C(C)=O)C3)n2)c1 [Compound 00003] | – | EC50 (OPM-2): > 10000 nM |
| CC(=O)N1C[C@H](c2nc(Nc3ccc4c(c3)B(O)OC4)cc(-c3cccnc3)n2)CC[C@@H]1C [Compound 00034, 1-((2S,5R)-5-(4-((1-hydroxy-1,3-dihydrobenzo[c][1,2]oxaborol-6-yl)amino)-6-(pyridin-3-yl)pyrimidin-2-yl)-2-methylpiperidin-1-yl)ethan-1-one] | 200 to 1000 | – |
| CC(=O)N1C[C@H](c2nc(Nc3ccc4c(=O)[nH]ccc4c3)cc(-c3cccnc3)n2)CC[C@@H]1C [Compound 00035, 6-((2-((3R,6S)-1-acetyl-6-methylpiperidin-3-yl)-6-(pyridin-3-yl)pyrimidin-4-yl)amino)isoquinolin-1(2H)-one] | < 200 | – |
| CC(=O)Nc1ccc(Nc2cc(-c3cccnc3)nc([C@@H]3CC[C@H](C)N(C(C)=O)C3)n2)cc1O [Compound 00036, N-(4-((2-((3R,6S)-1-acetyl-6-methylpiperidin-3-yl)-6-(pyridin-3-yl)pyrimidin-4-yl)amino)-2-hydroxyphenyl)acetamide] | 1000 to 10000 | – |
| CC(=O)N1C[C@H](c2nc(Nc3ccc4nc(C)oc4c3)cc(-c3cccnc3)n2)CC[C@@H]1C [Compound 00037, 1-((2S,5R)-2-methyl-5-(4-((2-methylbenzo[d]oxazol-6-yl)amino)-6-(pyridin-3-yl)pyrimidin-2-yl)piperidin-1-yl)ethan-1-one] | 200 to 1000 | – |
| CC(=O)N1C[C@H](c2nc(Nc3cccc(N4CCCC4=O)c3)cc(-c3cccnc3)n2)CC[C@@H]1C [Compound 00048, 1-(3-((2-((3R,6S)-1-acetyl-6-methylpiperidin-3-yl)-6-(pyridin-3-yl)pyrimidin-4-yl)amino)phenyl)pyrrolidin-2-one] | < 200 | – |
| CC(=O)N1C[C@H](c2nc(Nc3ccc(O)cc3)cc(-c3cccnc3)n2)CC[C@@H]1C [Compound 00071, 1-((2S,5R)-5-(4-((4-hydroxyphenyl)amino)-6-(pyridin-3-yl)pyrimidin-2-yl)-2-methylpiperidin-1-yl)ethan-1-one] | 200 to 1000 | – |
| COc1cncc(-c2cc(Nc3cccc(Cl)c3)nc([C@@H]3CC[C@H](C)N(C(C)=O)C3)n2)c1 [Compound 00074, 1-((2S,5R)-5-(4-((3-chlorophenyl)amino)-6-(5-methoxypyridin-3-yl)pyrimidin-2-yl)-2-methylpiperidin-1-yl)ethan-1-one] | < 200 | – |
| CC(=O)N1C[C@H](c2nc(Nc3cccc(O)c3)cc(-c3cccnc3)n2)CC[C@@H]1C [Compound 00075, 1-((2S,5R)-5-(4-((3-hydroxyphenyl)amino)-6-(pyridin-3-yl)pyrimidin-2-yl)-2-methylpiperidin-1-yl)ethan-1-one] | < 200 | – |
| CC(=O)N1C[C@H](c2nc(Nc3ccc4c(c3)NC(=O)C4)cc(-c3cccnc3)n2)CC[C@@H]1C [Compound 00076, 6-((2-((3R,6S)-1-acetyl-6-methylpiperidin-3-yl)-6-(pyridin-3-yl)pyrimidin-4-yl)amino)indolin-2-one] | 200 to 1000 | – |
| CC(=O)N1C[C@H](c2nc(Nc3cc(F)cc(-c4cnn(C)c4)c3)cc(-c3cncc(N4C[C@@H]5C[C@H]4CO5)c3)n2)CC[C@@H]1C [Compound 00090, 1-((2S,5R)-5-(4-(5-((1S,4S)-2-oxa-5-azabicyclo-[2.2.1]heptan-5-yl)pyridin-3-yl)-6-((3-fluoro-5-(1-methyl-1H-pyrazol-4-yl)phenyl)amino)pyrimidin-2-yl)-2-methylpiperidin-1-yl)ethan-1-one] | – | EC50 (OPM-2): < 200 nM |
| CC(=O)N1C[C@H](c2nc(Nc3ccnc(F)c3)cc(-c3cncc(N4CCCC4=O)c3)n2)CC[C@@H]1C [Compound 00106, 1-(5-(2-((3R,6S)-1-acetyl-6-methylpiperidin-3-yl)-6-((2-fluoropyridin-4-yl)amino)pyrimidin-4-yl)pyridin-3-yl)pyrrolidin-2-one] | < 200 | – |
| CC(=O)N1C[C@H](c2nc(Nc3ccnc(C)c3)cc(-c3cncc(N4CCCC4=O)c3)n2)CC[C@@H]1C [Compound 00108, 1-(5-(2-((3R,6S)-1-acetyl-6-methylpiperidin-3-yl)-6-((2-methylpyridin-4-yl)amino)pyrimidin-4-yl)pyridin-3-yl)pyrrolidin-2-one] | 200 to 1000 | – |
| CC(=O)N1C[C@H](c2nc(Nc3ccnc(C)c3)cc(-c3cncc(C(=O)N(C)C)c3)n2)CC[C@@H]1C [Compound 00109, 5-(2-((3R,6S)-1-acetyl-6-methylpiperidin-3-yl)-6-((2-methylpyridin-4-yl)amino)pyrimidin-4-yl)-N,N-dimethylnicotinamide] | > 10000 | – |
| COc1cc(-c2cc(Nc3ccnc(C)c3)nc([C@@H]3CC[C@H](C)N(C(C)=O)C3)n2)cnc1OC [Compound 00110, 1-((2S,5R)-5-(4-(5,6-dimethoxypyridin-3-yl)-6-((2-methylpyridin-4-yl)amino)pyrimidin-2-yl)-2-methylpiperidin-1-yl)ethan-1-one] | > 10000 | – |
| CC(=O)N1C[C@H](c2nc(Nc3ccnc(C)c3)cc(-c3cncc(N4CC(C(N)=O)C4)c3)n2)CC[C@@H]1C [Compound 00114, 1-(5-(2-((3R,6S)-1-acetyl-6-methylpiperidin-3-yl)-6-((2-methylpyridin-4-yl)amino)pyrimidin-4-yl)pyridin-3-yl)azetidine-3-carboxamide] | > 10000 | – |
| CC(=O)N1C[C@H](c2nc(Nc3ccc4nccnc4c3)cc(-c3cccnc3)n2)CC[C@@H]1C [Compound 00120, 1-((2S,5R)-2-methyl-5-(4-(pyridin-3-yl)-6-(quinoxalin-6-ylamino)pyrimidin-2-yl)piperidin-1-yl)ethan-1-one] | < 200 | – |
| CC(=O)N1C[C@H](c2nc(Nc3ccc4ncncc4c3)cc(-c3cccnc3)n2)CC[C@@H]1C [Compound 00121, 1-((2S,5R)-2-methyl-5-(4-(pyridin-3-yl)-6-(quinazolin-6-ylamino)pyrimidin-2-yl)piperidin-1-yl)ethan-1-one] | < 200 | – |
| CC(=O)N1C[C@H](c2nc(Nc3ccc4nncnc4c3)cc(-c3cccnc3)n2)CC[C@@H]1C [Compound 00122, 1-((2S,5R)-5-(4-(benzo[e][1,2,4]triazin-6-ylamino)-6-(pyridin-3-yl)pyrimidin-2-yl)-2-methylpiperidin-1-yl)ethan-1-one] | 200 to 1000 | – |
| CC(=O)N1C[C@H](c2nc(Nc3ccnc(C)c3)cc(-c3cncc(C4COC4)c3)n2)CC[C@@H]1C [Compound 00127, 1-((2S,5R)-2-methyl-5-(4-((2-methylpyridin-4-yl)amino)-6-(5-(oxetan-3-yl)pyridin-3-yl)pyrimidin-2-yl)piperidin-1-yl)ethan-1-one] | < 200 | – |
| CC(=O)N1C[C@H](c2nc(Nc3cncc(C(F)F)c3)cc(-c3cnccn3)n2)CC[C@@H]1C [Compound 00129, 1-((2S,5R)-5-(4-((5-(difluoromethyl)pyridin-3-yl)amino)-6-(pyrazin-2-yl)pyrimidin-2-yl)-2-methylpiperidin-1-yl)ethan-1-one] | < 200 | – |
| COc1cncc(-c2cc(Nc3cncc(C)c3)nc([C@H]3CC[C@H](C)N(C(C)=O)C3)n2)c1 [Compound 00133, 1-((2S,5S)-5-(4-(5-methoxypyridin-3-yl)-6-((5-methylpyridin-3-yl)amino)pyrimidin-2-yl)-2-methylpiperidin-1-yl)ethan-1-one] | – | EC50 (A375 cells; Homo sapiens, A-375, 24 h): > 10000 nM |
| CC(=O)N1C[C@H](c2nc(Nc3cncc(N4CCCC4=O)c3)cc(-c3cccnc3)n2)CC[C@@H]1C [Compound 00135, 1-(5-((2-((3R,6S)-1-acetyl-6-methylpiperidin-3-yl)-6-(pyridin-3-yl)pyrimidin-4-yl)amino)pyridin-3-yl)pyrrolidin-2-one] | 1000 to 10000 | – |
| CC(=O)N1C[C@H](c2nc(Nc3cc(F)cc(-c4nnco4)c3)cc(-c3cccnc3)n2)CC[C@@H]1C [Compound 00166, 1-((2S,5R)-5-(4-((3-fluoro-5-(1,3,4-oxadiazol-2-yl)phenyl)amino)-6-(pyridin-3-yl)pyrimidin-2-yl)-2-methylpiperidin-1-yl)ethan-1-one] | < 200 | – |
